Key:
[1] = molecular target: T1, 5-hydroxytryptamine receptor 2B (Homo sapiens, UniProt P41595); experiment: GPCRScan assay: inhibition of 5-HT2B; design: radioligand conc. used [nm] 1.0 – 2.0, parental cells stable HEK
[2] = molecular target: 5-hydroxytryptamine receptor 1A (Homo sapiens) (UniProt P08908); details: Compound concentration 10.0 uM
[3] = molecular target: 5-hydroxytryptamine receptor 1B (Homo sapiens) (UniProt P28222); details: Compound concentration 10.0 uM
[4] = molecular target: 5-hydroxytryptamine receptor 1D (Homo sapiens) (UniProt P28221); details: Compound concentration 10.0 uM
[5] = molecular target: 5-hydroxytryptamine receptor 2A (Homo sapiens) (UniProt P28223); details: Compound concentration 10.0 uM
[6] = molecular target: T1, 5-hydroxytryptamine receptor 2B; details: Compound concentration 10.0 uM
[7] = molecular target: 5-hydroxytryptamine receptor 2C (Homo sapiens) (UniProt P28335); details: Compound concentration 10.0 uM
5-hydroxytryptamine receptor 2C (Homo sapiens), sequence (P28335 whole entry): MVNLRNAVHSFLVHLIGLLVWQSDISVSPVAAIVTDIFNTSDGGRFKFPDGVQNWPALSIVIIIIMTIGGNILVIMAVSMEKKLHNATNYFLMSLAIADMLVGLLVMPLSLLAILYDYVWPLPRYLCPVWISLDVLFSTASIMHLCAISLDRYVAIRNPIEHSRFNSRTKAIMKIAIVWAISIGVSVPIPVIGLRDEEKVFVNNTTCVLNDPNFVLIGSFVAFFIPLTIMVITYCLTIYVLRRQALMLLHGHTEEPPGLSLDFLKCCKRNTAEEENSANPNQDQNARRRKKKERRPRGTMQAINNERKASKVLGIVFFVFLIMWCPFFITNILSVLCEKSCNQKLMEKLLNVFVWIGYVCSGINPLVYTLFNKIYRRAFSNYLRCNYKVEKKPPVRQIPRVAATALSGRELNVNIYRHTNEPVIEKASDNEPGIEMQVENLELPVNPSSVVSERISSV

[8] = molecular target: 5-hydroxytryptamine receptor 3A (Homo sapiens) (UniProt P46098); details: Compound concentration 10.0 uM
5-hydroxytryptamine receptor 3A (Homo sapiens), sequence (P46098 whole entry): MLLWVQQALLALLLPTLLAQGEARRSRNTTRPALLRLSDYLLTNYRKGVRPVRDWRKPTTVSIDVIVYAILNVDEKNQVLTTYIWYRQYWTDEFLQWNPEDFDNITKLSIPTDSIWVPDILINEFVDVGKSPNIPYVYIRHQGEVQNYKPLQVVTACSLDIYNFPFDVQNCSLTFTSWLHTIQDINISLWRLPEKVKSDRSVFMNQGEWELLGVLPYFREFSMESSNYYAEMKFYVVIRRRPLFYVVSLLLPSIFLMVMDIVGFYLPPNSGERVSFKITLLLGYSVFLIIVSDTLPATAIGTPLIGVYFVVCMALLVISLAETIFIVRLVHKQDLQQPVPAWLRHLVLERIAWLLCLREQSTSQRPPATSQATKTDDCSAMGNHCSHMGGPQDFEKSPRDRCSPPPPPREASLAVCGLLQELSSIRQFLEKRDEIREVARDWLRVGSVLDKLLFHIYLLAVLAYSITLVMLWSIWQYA

[9] = molecular target: 5-hydroxytryptamine receptor 5A (Homo sapiens) (UniProt P47898); details: Compound concentration 10.0 uM
[10] = molecular target: 5-hydroxytryptamine receptor 6 (Homo sapiens) (UniProt P50406); details: Compound concentration 10.0 uM
[11] = molecular target: 5-hydroxytryptamine receptor 7 (Homo sapiens) (UniProt P34969); details: Compound concentration 10.0 uM
5-hydroxytryptamine receptor 7 (Homo sapiens), sequence (P34969 whole entry): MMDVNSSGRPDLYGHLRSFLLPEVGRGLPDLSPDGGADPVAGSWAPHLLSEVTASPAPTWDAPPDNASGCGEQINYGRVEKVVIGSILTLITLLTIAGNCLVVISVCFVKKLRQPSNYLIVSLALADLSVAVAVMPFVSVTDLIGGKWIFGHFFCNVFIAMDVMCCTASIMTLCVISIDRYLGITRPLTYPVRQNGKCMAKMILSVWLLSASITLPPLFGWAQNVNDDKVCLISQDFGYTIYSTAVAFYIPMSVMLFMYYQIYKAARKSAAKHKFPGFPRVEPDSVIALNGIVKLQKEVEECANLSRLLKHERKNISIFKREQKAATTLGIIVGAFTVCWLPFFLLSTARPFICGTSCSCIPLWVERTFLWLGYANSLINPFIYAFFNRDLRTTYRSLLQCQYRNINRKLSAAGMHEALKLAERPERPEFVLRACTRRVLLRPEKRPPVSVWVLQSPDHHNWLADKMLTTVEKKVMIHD

[12] = molecular target: D(1A) dopamine receptor (Homo sapiens) (UniProt P21728); details: Compound concentration 10.0 uM
[13] = molecular target: D(2) dopamine receptor (Homo sapiens) (UniProt P14416); details: Compound concentration 10.0 uM
D(2) dopamine receptor (Homo sapiens), sequence (P14416 whole entry): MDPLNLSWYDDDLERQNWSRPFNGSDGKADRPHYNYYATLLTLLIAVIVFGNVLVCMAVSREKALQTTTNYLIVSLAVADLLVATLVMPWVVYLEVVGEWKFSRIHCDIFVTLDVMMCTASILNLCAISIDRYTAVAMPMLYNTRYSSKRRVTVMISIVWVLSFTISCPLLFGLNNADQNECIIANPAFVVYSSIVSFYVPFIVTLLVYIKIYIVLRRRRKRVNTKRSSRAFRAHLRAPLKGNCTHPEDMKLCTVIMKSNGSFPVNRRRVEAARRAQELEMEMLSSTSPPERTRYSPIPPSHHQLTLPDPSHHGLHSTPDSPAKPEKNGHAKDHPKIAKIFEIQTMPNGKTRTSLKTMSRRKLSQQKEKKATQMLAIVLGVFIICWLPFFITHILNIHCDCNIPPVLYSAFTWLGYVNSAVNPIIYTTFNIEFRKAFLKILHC

[14] = molecular target: D(3) dopamine receptor (Homo sapiens) (UniProt P35462); details: Compound concentration 10.0 uM
[15] = molecular target: D(4) dopamine receptor (Homo sapiens) (UniProt P21917); details: Compound concentration 10.0 uM
[16] = molecular target: D(1B) dopamine receptor (Homo sapiens) (UniProt P21918); details: Compound concentration 10.0 uM
[17] = molecular target: Sodium-dependent serotonin transporter (Homo sapiens) (UniProt P31645); details: Compound concentration 10.0 uM
[18] = molecular target: Sodium-dependent noradrenaline transporter (Homo sapiens) (UniProt P23975); details: Compound concentration 10.0 uM
Sodium-dependent noradrenaline transporter (Homo sapiens), sequence (P23975 whole entry): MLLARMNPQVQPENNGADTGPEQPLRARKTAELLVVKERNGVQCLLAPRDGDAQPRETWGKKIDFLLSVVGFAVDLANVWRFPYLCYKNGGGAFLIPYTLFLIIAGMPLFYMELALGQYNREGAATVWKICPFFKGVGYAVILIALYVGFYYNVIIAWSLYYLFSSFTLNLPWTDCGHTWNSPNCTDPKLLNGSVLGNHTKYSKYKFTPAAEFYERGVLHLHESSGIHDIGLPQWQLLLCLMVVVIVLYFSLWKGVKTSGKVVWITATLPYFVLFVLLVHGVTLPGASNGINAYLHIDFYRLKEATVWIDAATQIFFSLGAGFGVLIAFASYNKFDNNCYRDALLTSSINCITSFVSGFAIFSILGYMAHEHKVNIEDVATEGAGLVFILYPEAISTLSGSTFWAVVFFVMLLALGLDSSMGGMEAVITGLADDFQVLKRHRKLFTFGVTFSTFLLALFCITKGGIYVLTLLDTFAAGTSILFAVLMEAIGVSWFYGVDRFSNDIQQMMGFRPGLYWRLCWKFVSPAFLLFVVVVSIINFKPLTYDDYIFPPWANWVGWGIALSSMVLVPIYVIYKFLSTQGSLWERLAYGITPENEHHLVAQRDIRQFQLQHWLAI

[19] = molecular target: Sodium-dependent dopamine transporter (Homo sapiens) (UniProt Q01959); details: Compound concentration 10.0 uM
[20] = molecular target: Mu-type opioid receptor (Homo sapiens) (UniProt P35372); details: Compound concentration 10.0 uM
[21] = molecular target: Delta-type opioid receptor (Homo sapiens) (UniProt P41143); details: Compound concentration 10.0 uM
[22] = molecular target: Kappa-type opioid receptor (Homo sapiens) (UniProt P41145); details: Compound concentration 10.0 uM
[23] = molecular target: T2, GABA-A receptor; anion channel (Rattus norvegicus) (UniProt O09028+P15431+P18506+P18508+P19969+P20236+P23574+P23576+P28471+P28473+P30191+P62813+P63079+P63138+Q91ZM7+Q9ES14); details: Compound concentration 10.0 uM
[24] = molecular target: Histamine H1 receptor (Homo sapiens) (UniProt P35367); details: Compound concentration 10.0 uM
[25] = molecular target: Histamine H3 receptor (Homo sapiens) (UniProt Q9Y5N1); details: Compound concentration 10.0 uM
[26] = molecular target: Histamine H4 receptor (Homo sapiens) (UniProt Q9H3N8); details: Compound concentration 10.0 uM
[27] = molecular target: Alpha-1A adrenergic receptor (Homo sapiens) (UniProt P35348); details: Compound concentration 10.0 uM
[28] = molecular target: Alpha-2A adrenergic receptor (Homo sapiens) (UniProt P08913); details: Compound concentration 10.0 uM
Alpha-2A adrenergic receptor (Homo sapiens), sequence (P08913 whole entry): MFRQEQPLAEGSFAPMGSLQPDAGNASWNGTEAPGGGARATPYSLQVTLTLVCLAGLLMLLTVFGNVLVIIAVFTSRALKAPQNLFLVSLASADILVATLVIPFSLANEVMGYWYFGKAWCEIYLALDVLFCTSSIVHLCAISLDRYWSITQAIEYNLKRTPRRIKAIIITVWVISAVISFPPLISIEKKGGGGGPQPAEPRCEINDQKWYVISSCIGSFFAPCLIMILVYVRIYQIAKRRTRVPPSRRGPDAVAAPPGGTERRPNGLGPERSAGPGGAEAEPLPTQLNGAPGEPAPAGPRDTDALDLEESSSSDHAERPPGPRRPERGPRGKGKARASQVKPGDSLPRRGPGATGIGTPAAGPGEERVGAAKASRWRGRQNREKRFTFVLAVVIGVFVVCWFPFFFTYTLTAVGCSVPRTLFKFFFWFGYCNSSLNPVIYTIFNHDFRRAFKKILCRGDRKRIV

[29] = molecular target: Alpha-2B adrenergic receptor (Homo sapiens) (UniProt P18089); details: Compound concentration 10.0 uM
Alpha-2B adrenergic receptor (Homo sapiens), sequence (P18089 whole entry): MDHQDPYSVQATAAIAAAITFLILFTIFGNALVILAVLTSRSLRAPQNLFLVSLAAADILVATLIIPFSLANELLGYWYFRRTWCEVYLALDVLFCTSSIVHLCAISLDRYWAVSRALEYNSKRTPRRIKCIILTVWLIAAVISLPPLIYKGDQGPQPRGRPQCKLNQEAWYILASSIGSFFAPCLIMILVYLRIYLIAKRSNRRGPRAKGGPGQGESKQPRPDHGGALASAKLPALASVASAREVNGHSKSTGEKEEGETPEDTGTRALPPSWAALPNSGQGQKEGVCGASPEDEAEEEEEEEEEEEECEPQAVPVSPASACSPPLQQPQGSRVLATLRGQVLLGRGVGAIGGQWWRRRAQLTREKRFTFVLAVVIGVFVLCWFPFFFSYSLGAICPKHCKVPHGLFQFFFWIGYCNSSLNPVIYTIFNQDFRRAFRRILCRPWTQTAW

[30] = molecular target: Alpha-2C adrenergic receptor (Homo sapiens) (UniProt P18825); details: Compound concentration 10.0 uM
[31] = molecular target: Beta-1 adrenergic receptor (Homo sapiens) (UniProt P08588); details: Compound concentration 10.0 uM
Beta-1 adrenergic receptor (Homo sapiens), sequence (P08588 whole entry, looked up): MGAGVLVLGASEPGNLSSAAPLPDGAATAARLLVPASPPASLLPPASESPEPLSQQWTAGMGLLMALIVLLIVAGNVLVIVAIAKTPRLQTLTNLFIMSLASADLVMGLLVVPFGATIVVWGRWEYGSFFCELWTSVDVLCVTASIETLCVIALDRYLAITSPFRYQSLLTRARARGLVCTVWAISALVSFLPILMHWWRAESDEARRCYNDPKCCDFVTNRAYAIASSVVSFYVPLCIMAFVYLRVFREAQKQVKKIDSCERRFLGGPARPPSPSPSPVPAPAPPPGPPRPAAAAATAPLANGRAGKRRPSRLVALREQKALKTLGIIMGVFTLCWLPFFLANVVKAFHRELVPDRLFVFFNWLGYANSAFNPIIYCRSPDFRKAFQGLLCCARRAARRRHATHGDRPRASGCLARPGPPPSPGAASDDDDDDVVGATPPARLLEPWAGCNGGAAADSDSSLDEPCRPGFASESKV

[32] = molecular target: Beta-2 adrenergic receptor (Homo sapiens) (UniProt P07550); details: Compound concentration 10.0 uM
[33] = molecular target: Muscarinic acetylcholine receptor M1 (Homo sapiens) (UniProt P11229); details: Compound concentration 10.0 uM
[34] = molecular target: Muscarinic acetylcholine receptor M2 (Homo sapiens) (UniProt P08172); details: Compound concentration 10.0 uM
[35] = molecular target: Muscarinic acetylcholine receptor M3 (Homo sapiens) (UniProt P20309); details: Compound concentration 10.0 uM
[36] = molecular target: Muscarinic acetylcholine receptor M4 (Homo sapiens) (UniProt P08173); details: Compound concentration 10.0 uM
[37] = molecular target: Beta-3 adrenergic receptor (Homo sapiens) (UniProt P13945); details: Compound concentration 10.0 uM
[38] = molecular target: T2, GABA-A receptor; anion channel (Rattus norvegicus); details: Compound concentration 10.0 uM; remark: listed apart in the source
Rattus norvegicus = species: Rattus norvegicus; details: Compound concentration 10.0 uM
[39] = molecular target: Alpha-1D adrenergic receptor (Homo sapiens) (UniProt P25100); details: Compound concentration 10.0 uM
[40] = molecular target: Sigma non-opioid intracellular receptor 1 (Homo sapiens) (UniProt Q99720); details: Compound concentration 10.0 uM
Sigma non-opioid intracellular receptor 1 (Homo sapiens), sequence (Q99720 whole entry): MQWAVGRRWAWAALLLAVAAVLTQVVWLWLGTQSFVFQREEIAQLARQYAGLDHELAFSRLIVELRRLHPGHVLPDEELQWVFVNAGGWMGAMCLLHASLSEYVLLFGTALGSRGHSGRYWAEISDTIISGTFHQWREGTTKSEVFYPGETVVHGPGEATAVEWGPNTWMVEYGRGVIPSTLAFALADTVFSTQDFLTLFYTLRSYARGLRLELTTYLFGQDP

[41] = molecular target: 5-hydroxytryptamine receptor 1A (Homo sapiens, UniProt P08908); experiment: GPCRScan assay: inhibition of 5-HT1A; design: radioligand conc. used [nm] 0.5 – 1.0, parental cells stable CHO
[42] = molecular target: Histamine H2 receptor (Homo sapiens) (UniProt P25021); details: Compound concentration 10.0 uM
[43] = molecular target: Alpha-1B adrenergic receptor (Homo sapiens) (UniProt P35368); details: Compound concentration 10.0 uM
[44] = molecular target: Muscarinic acetylcholine receptor M5 (Homo sapiens) (UniProt P08912); details: Compound concentration 10.0 uM
[45] = molecular target: Sigma intracellular receptor 2 (Homo sapiens) (UniProt Q5BJF2); details: Compound concentration 10.0 uM

T1 sequence (P41595 whole entry): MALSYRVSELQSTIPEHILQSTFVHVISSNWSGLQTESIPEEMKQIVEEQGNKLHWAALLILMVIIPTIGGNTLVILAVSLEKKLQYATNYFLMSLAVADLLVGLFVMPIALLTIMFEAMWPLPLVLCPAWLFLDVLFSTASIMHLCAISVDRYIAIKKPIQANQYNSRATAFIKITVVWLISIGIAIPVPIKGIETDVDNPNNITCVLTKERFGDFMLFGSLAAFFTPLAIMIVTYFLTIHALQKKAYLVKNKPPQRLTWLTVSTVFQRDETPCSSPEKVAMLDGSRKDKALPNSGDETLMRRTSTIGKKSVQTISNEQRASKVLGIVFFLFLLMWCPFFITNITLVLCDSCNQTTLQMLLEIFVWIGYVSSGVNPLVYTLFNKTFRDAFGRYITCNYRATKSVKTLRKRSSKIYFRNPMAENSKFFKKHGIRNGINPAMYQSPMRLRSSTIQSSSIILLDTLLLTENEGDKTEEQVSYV
5-hydroxytryptamine receptor 1B (Homo sapiens), sequence (P28222 whole entry): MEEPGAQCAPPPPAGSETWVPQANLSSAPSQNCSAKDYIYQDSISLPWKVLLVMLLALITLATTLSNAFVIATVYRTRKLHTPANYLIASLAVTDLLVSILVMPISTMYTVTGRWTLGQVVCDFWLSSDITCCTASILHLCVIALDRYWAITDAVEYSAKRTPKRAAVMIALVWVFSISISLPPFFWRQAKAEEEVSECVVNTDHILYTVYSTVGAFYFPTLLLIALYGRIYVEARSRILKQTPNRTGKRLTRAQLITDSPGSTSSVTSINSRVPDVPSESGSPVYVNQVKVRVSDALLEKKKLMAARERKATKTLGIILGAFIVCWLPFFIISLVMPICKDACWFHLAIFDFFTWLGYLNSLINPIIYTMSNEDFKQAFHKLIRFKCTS

Nc1nc(NCc2ccccc2)nc(-c2ccccc2CO)n1 [Ogerin]
Ki ([1]; read-out: Ki): 496 nM | Ki ([1]; read-out: pKi (converted)): 490 nM | inhibition [2]: 9.7% | inhibition [3]: 7.41% | inhibition [4]: 11.2% | inhibition [5]: 2.78% | inhibition [6]: 81% | inhibition [7]: 9.32% | inhibition [8]: 2.24% | inhibition [9]: 10.6% | inhibition [10]: 19.4% | inhibition [11]: 43.9% | inhibition [12]: 33.7% | inhibition [13]: 10% | inhibition [14]: 18.9% | inhibition [15]: 4.35% | inhibition [16]: 43.9% | inhibition [17]: 4.96% | inhibition [18]: 32.1% | inhibition [19]: 18.1% | inhibition [20]: 11.9% | inhibition [21]: 12.5% | inhibition [22]: 30.2% | inhibition [23]: 19.7% | inhibition [24]: -4.07% | inhibition [25]: -1.93% | inhibition [26]: 8.3% | inhibition [27]: 25.5% | inhibition [28]: 24.4% | inhibition [29]: 43.9% | inhibition [30]: 0.87% | inhibition [31]: 25.5% | inhibition [32]: 20.7% | inhibition [33]: 23.6% | inhibition [34]: 23.2% | inhibition [35]: 36% | inhibition [36]: -9.42% | inhibition [37]: 14.8% | inhibition [38]: 32.9% | inhibition (Rattus norvegicus): 12.9% | inhibition [39]: 4.63% | inhibition [40]: -0.41% | pEC50 (FLIPR-TETRA assay): 6.83

Nc1nc(NCc2ccccc2)nc(-c2cccc(CO)c2)n1 [ZINC32547799]
Ki ([41]; read-out: Ki): 850 nM | Ki ([41]; read-out: pKi (converted)): 832 nM | inhibition [2]: 65.5% | inhibition [3]: -2.86% | inhibition [4]: 13.7% | inhibition [5]: 1.28% | inhibition [6]: 41.8% | inhibition [7]: 3.72% | inhibition [8]: 37.2% | inhibition [9]: 0.66% | inhibition [10]: 26.7% | inhibition [11]: 15.9% | inhibition [12]: 3.99% | inhibition [13]: -7.4% | inhibition [14]: 8.38% | inhibition [15]: 24.4% | inhibition [17]: 9.44% | inhibition [18]: 43.6% | inhibition [19]: -9.76% | inhibition [20]: 8.68% | inhibition [21]: 9.2% | inhibition [22]: 10.8% | inhibition [24]: -5.64% | inhibition [42]: 4.01% | inhibition [25]: 6.14% | inhibition [26]: -9.05% | inhibition [27]: 5.91% | inhibition [43]: 5.01% | inhibition [28]: 7.24% | inhibition [29]: 21.8% | inhibition [30]: 1.4% | inhibition [31]: -3.07% | inhibition [32]: 18% | inhibition [33]: 35.2% | inhibition [34]: 10.8% | inhibition [35]: 18.3% | inhibition [36]: 21.6% | inhibition [44]: 12.8% | inhibition [37]: 17.8% | inhibition [38]: 18.3% | inhibition (Rattus norvegicus): 8.6% | inhibition [39]: -8.75% | inhibition [45]: 12.3% | inhibition [40]: 0.95%
